Measurements from patent publication US20070265307A1, “Administration of 4-aminopiperidine compounds for inducing and/or stimulating the growth of keratin fibers and/or preventing loss thereof” (L'OREAL, priority 2006, published 2007).

Tested on: normal human fibroblasts
Experiment: Dermodecontracting effect: spontaneous contraction of attached dermal equivalents (collagen matrix seeded with normal human fibroblasts)
Assay type: cell-based
Settings: dermal equivalent, contraction kinetics 0, 4, 8 and 24 hours
Text: The principle of this test entails studying the effect of the test product on a model of dermal equivalent consisting of a collagen matrix seeded with normal human fibroblasts.
These conditions are suited to mimic, in vitro, the dermal contractile phenomena that occur during facial expressions. Under these conditions, in fact, the cells spontaneously express tensile forces which induce a retraction of the collagen gel. […] The measurement of this surface area makes it possible to evaluate the relaxing effects of the substances brought into contact beforehand with the dermal equivalent.
[…] The experiment is repeated three times.
The dermal equivalents are prepared as described in Asselineau et al., Exp. Cell. Res., 1985,159, 536-539; Models in Dermatology, 1987, vol. 3 pp 1-7, in the following proportions: […]
The collagen used is collagen type I (commercial solution). It is extracted from rat tail or from calf skin by acid hydrolysis and stored in an acidic medium at +4° C.; it polymerizes naturally by heating at 37° C. and by decreasing the degree of acidity. […]
For this, a digital image is acquired for each treated or non-treated dermal equivalent by means of a camera (Camera CCD-Iris Sony DXC-107P) and the surface area is then calculated on each image by means of an image analysis system (Zeiss Axiovision 3.0). […]

Row | SMILES | reduction of the fibroblast contraction, on average over the duration of the experiment, compared with the control (tested at 10 μM) [%] | reduction of the fibroblast contraction, on average over the duration of the experiment, compared with the control (tested at 1 μM) [%]
1 | CC(NC1CCN(CCc2ccccc2)CC1)c1ccccc1 (centres unmarked) [Compound No. 5, 1-(2-phenylethyl)-4-[N-(1-phenyl-ethyl)]aminopiperidine] | 40 | –
2 | c1ccc(CCCNC2CCN(CCc3ccccc3)CC2)cc1 [Compound No. 1, 1-(2-phenylethyl)-4-[N-(3-phenylpropyl)]aminopiperidine] | – | 21
